≈ marks a conversion by molar mass, not a printed value.
Experiments:
[1] = Unbound brain-to-plasma concentration ratio in male Sprague-Dawley rat at 25 mg/kg, po administered as single dose; assay type: ADME, organism-based; conditions: read-out: K(p,uu,brain)
[2] = Toxicity in female athymic nude mouse xenografted with MTAP-deleted human HCT-116 cells assessed as body weight change at 3 to 100 mg/kg, po administered once daily for 14 days; assay type: organism-based; conditions: in vivo, 336 h, dose 3-100 mg/kg, time 14 day
[3] = target: PRMT5/MEP50 complex (Homo sapiens) (UniProt O14744+Q9BQA1); test: Inhibition of human PRMT5/MEP50 at 10 uM relative to control; assay type: protein-complex assay
[4] = target: Protein arginine N-methyltransferase 5 (Homo sapiens) (UniProt O14744); test: In vivo inhibition of PRMT5 in athymic nude mouse xenografted with MTAP-deleted human HCT-116 cells assessed as decrease in SDMA level in tumor at 10 mg/kg, po administered once daily for 4 days and measured 4 hrs post last dose by ELISA relative to control; assay type: functional, organism-based; conditions: time 4.0 day
Chain of Protein arginine N-methyltransferase 5 (Homo sapiens) (O14744 whole entry): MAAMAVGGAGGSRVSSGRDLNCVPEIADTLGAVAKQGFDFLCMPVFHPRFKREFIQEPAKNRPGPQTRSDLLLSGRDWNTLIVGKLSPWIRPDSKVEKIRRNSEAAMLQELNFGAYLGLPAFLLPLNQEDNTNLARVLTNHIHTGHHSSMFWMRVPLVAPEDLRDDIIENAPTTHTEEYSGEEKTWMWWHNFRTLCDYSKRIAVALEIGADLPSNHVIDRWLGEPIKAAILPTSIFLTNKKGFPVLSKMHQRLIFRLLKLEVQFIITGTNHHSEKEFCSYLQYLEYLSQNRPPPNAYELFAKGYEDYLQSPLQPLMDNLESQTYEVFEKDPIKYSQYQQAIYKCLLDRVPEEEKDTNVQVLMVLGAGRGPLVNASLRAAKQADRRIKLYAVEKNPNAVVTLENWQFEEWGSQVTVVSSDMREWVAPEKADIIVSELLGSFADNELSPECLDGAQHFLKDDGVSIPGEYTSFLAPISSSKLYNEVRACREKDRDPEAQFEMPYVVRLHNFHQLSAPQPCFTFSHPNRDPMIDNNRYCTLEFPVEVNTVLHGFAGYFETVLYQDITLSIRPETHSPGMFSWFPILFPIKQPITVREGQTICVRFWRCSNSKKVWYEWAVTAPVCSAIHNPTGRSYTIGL

[5] = Unbound CSF-to-plasma concentration ratio in male Sprague-Dawley rat at 75 mg/kg, po administered as single dose; assay type: ADME, organism-based
[6] = Solubility of compound in Hcl buffer at pH 2.0
[7] = target: T1, Nuclear receptor subfamily 1 group I member 2 (Homo sapiens, UniProt O75469); test: Activation of human PXR in human HepG2 cells co-transfected with CYP3A4-luciferase at 10 uM incubated for 1 day relative to control; conditions: hepg2, 24 h
T1 sequence (O75469 whole entry): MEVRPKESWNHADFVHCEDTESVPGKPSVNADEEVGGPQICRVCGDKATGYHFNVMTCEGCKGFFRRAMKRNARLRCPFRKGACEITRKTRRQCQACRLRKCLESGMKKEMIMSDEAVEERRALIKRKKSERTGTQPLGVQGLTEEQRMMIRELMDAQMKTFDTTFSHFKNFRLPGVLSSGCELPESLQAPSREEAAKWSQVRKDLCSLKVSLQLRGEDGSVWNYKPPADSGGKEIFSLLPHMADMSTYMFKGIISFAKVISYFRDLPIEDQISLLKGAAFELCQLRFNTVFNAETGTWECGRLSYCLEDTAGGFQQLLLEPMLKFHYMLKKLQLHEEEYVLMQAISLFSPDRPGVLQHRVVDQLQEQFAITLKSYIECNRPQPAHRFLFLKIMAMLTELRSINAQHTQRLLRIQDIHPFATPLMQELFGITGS

U-87 MG = test: Antiproliferative activity against human U-87 MG cells assessed as effect on cell viability; assay type: functional, cell-based, U-87MG ATCC
[8] = Unbound brain-to-plasma concentration ratio in female Sprague-Dawley rat at 75 mg/kg, po administered as single dose; assay type: ADME, organism-based; conditions: read-out: K(p,uu,brain)
[9] = target: Protein arginine N-methyltransferase 5 (Homo sapiens) (UniProt O14744); test: Selectivity ratio of dissociation rate for binding affinity to PRMT5 (unknown origin) in presence of SAM to dissociation rate for binding affinity to PRMT5 (unknown origin) in presence of MTA
[10] = Metabolic stability in dog liver microsomes assessed as intrinsic clearance; assay type: ADME, Canis lupus familiaris, Microsome; conditions: read-out: CLH
[11] = target: Protein arginine N-methyltransferase 5 (Homo sapiens) (UniProt O14744); test: In vivo inhibition of PRMT5 in female athymic nude mouse xenografted with MTAP-deleted human U-87 MG cells assessed as decrease in SDMA level in tumor at 10 mg/kg, po administered once daily for 14 days and measured 2 to 8 hrs post last dose by ELISA relative to control; assay type: functional, organism-based; conditions: time 338-344 hrs
[12] = target: Voltage-gated inwardly rectifying potassium channel KCNH2 (Homo sapiens, UniProt Q12809); test: Inhibition of human ERG by binding assay
Chain of Voltage-gated inwardly rectifying potassium channel KCNH2 (Q12809 whole entry): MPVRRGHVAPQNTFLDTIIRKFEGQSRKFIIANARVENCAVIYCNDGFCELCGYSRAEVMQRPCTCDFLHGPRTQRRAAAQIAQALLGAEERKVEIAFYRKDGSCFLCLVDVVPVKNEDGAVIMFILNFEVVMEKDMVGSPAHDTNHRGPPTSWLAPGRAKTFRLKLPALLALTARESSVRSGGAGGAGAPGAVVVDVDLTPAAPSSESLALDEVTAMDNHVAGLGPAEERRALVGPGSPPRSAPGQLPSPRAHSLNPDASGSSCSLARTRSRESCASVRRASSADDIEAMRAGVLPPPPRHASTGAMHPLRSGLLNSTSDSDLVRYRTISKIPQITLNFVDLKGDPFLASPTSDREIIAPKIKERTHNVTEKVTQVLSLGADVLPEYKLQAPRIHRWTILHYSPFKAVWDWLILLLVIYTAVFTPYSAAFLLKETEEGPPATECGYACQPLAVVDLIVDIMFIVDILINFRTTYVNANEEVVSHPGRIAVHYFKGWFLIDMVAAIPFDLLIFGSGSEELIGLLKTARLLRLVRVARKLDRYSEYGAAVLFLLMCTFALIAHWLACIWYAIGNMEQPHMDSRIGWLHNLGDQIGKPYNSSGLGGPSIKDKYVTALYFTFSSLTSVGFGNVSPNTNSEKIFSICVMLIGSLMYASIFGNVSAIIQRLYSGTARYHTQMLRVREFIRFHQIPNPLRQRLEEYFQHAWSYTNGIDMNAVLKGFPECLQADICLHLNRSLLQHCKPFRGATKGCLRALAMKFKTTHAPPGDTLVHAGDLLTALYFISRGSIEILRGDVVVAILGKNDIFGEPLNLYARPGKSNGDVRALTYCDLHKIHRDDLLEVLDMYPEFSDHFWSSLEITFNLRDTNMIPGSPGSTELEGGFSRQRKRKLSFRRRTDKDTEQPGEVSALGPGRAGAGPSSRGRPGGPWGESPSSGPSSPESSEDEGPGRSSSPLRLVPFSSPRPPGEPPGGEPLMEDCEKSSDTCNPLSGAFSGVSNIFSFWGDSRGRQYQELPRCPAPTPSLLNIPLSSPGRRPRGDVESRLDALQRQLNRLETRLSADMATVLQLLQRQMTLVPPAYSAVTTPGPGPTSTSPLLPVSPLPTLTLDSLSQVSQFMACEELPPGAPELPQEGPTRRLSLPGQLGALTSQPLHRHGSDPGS

- Kp uu [1]: 0.15
- inhibition [3]: 84%
- inhibition [4]: 73%
- Kp uu [5]: 0.13
- solubility [6]: 492 µM (≈ 219 µg/mL)
- Activity [7]: < 20%
- IC50 (U-87 MG): 357 nM
- Kp uu [8]: 0.12
- Selectivity ratio [9]: 60
- microsomal CLint [10]: 14 µL/min/mg
- inhibition [11]: 68%
SMILES: Nc1nc2cnc(C(=O)N3CCOC[C@@H]3c3ccc(C(F)(F)F)cc3)cc2c2c1COC2
- Activity [2]: Non-toxic
- IC50 [12]: > 29 µM
